Source: US9827217B2, “Pharmaceutically acceptable salts of B-guanidinopropionic acid with improved properties and uses thereof” (Rgenix, Inc., priority 2015, dated 2017)
Entries after “also recorded” stand apart in the source; their conditions may differ. One block for each compound: values may come before it.

How the values were obtained:
Assay type in all cases: physicochemical
[1] = Experiments performed on 2:1 fumarate salt (Pattern 7C)
Protocol: To confirm the above hypothesis the following experiments (Table 24) were performed on the lyophilized sample (Pattern 7C): […]

[2] = Dynamic vapor sorption (moisture uptake)
Protocol: Samples were analyzed using an Aquadyne DVS-2 gravimetric water sorption analyzer. The relative humidity was adjusted between 2-95% and the weight of the sample was continuously monitored and recorded.
[…]: β-GPA maleate (1:1) Form II, β-GPA fumarate (1:1), β-GPA maleate (2:1), β-GPA succinate (2:1) and β-GPA oxalate (1:1) were analyzed by DVS experiment followed by XRPD analysis of the sample at the end of the experiment.
Sample 2162-64-1 was analyzed by DVS in triplicate and the post DVS samples were characterized by XRPD to identify the form at the end of the experiment.

[3] = Solid form stability of salts in different solvents (slurry); conditions: 48 hours, room temperature
Protocol: Three salts were studied for solid form stability in water (disproportionation test), methanol, acetonitrile, and acetone:water (9:1) for 48 hours at room temperature.

[4] = Determination of bulk and tapped density; conditions: for Tapped density (ρT): Tap density analyzer
Protocol: The bulk density of β-GPA oxalate (Pattern 18 B), succinate (Pattern 15A), and fumarate (Pattern 7A) were determined by pouring in a known amount of salt (g) into a measuring cylinder. The volume (Vi) occupied by the salt was recorded and the bulk density (ρB) was determined using equation 1. ρB=g/Vi (1)
The tapped densities of the salts were determined using a Tap density analyzer. A known amount of salt was poured (g) into a measuring cylinder and the initial volume was recorded and tapped using a Tap density analyzer. The final volume (Vf) after tapping was recorded and the tapped density (ρT) was calculated by using equation 2. ρT=g/Vf (2)

[5] = Flowability measurement using Hanson Flodex unit; conditions: density and Hanson Flodex data
Description: A cylindrical vessel is secured to the stand and above that a funnel is also secured such that the bottom of the funnel is close to the vessel. A powder load of ≈50-60 g is then poured through the funnel into the middle of the cylinder. The lever device is pulled to open the hole in the disk quickly and without vibration. If a powder slowly flows through the small-diameter holes, leaving a cavity shaped like an upside-down, truncated cone, the test is considered positive. If a powder flocculates in bulk and falls abruptly, forming a cylindrical cavity, the test is considered negative. […] If the experiment is negative, the powder is tested again with a disk having a larger hole.

[6] = Solid form stability of 1:1 β-GPA fumarate at various temperature/humidity conditions; conditions: for XRPD after stability study: a week
Protocol: The solid form stability of β-GPA fumarate was studied at various temperature/humidity conditions as listed in Table 22 for a week using saturated salt solution chambers. The samples were analyzed by XRPD after a week.

[7] = Gravimetric solubility of β-GPA fumarate in solvents; conditions: fifteen solvents and solvent mixtures at 15 and 45° C.
Protocol: Solubility of β-GPA fumarate was measured gravimetrically in fifteen different solvents and solvent mixtures at 15 and 45° C. About 100 mg of the compound was dispensed in ten volumes (1 mL) of the solvent/solvent mixture and slurried for 48 hours. Table 23 represents the solubility of β-GPA fumarate in different solvents. After 48 hours the vials were centrifuged. The supernatant was collected and left for slow evaporation under vacuum at 45° C. and solubility was determined. The solids obtained after centrifugation and evaporation were analyzed by XRPD.

[8] = Temperature cycling of 1:1 β-GPA fumarate
Protocol: The following (Table 25) experiments were performed to isolate possible polymorphic forms of 1:1 β-GPA fumarate.

[9] = Solid form stability of 1:1 β-GPA fumarate at various temperature/humidity conditions
[10] = Solubility of β-GPA in water
[11] = Determination of Carr's index and Hausner ratio; conditions: scale of Table 5
Description: The flow properties of β-GPA are sub-optimal. The bulk density is 0.389 g/cc and the tapped density is 0.627 g/cc. These measurements can be used to calculate the Carr's index and Hausner ratio for a substance. The Carr's index and Hausner ratio are indicators of flowability of a powder. As known in the art, e.g., as described in Carr R. L. Chem. Eng. 1965, 72, 163-168, the relationship to flowability of a powder to the Carr's index and Hausner ratio is based on the scale shown in Table 5 below.
Carr's index or Carr's compressibility index (C) is an indication of the compressibility of a powder. It can be calculated using the equation below: Carr's index(C)=100(Vi−Vf)/Vi (3)
The Hausner ratio is a number that is correlated to the flowability of a powder or granular material. It is calculated by using the equation below: Hausner ratio=Vi/Vf (4)

[12] = Stability of free β-GPA at 40° C. at 75% humidity; conditions: 40° C. at 75% humidity after 4 weeks
[13] = 50 mg slurried in 0.2 mL of water

Structure (SMILES): N=C(N)NCCC(=O)O.N=C(N)NCCC(=O)O.O=C(O)/C=C/C(=O)O [2:1 fumarate salt]
Stability of the crystalline form of the 2:1 salt [1]: unstable
Result: XRPD pattern that Pattern 7C converted to [1, 13]: Pattern 7A
Time to conversion of Pattern 7C to Pattern 7A [1, 13]: (within 10 minutes
Result: XRPD pattern that Pattern 7C converted to ([1]; heated at 50° C. 5-10 minutes): Pattern 7A
Result: XRPD pattern that Pattern 7C converted to ([1]; humidity chamber with RH >95% for 48 hours): Pattern 7A
Result: XRPD pattern that Pattern 7C converted to ([1]; mixed with Pattern 7A, undisturbed at room temperature (48 hours)): Pattern 7A
Form conversion of the 2:1 salt ([1]; slurried in water, heated, or under high humidity conditions): converted to the 1:1 salt

Structure (SMILES): N=C(N)NCCC(=O)O.O=C(O)/C=C/C(=O)O [β-GPA fumarate (1:1)]
Solid form after the DVS experiment (XRPD) ([2]; XRPD of post DVS sample): presence of two peaks from the β-GPA
Solid form after the DVS experiment (XRPD) ([2]; XRPD of post DVS sample, listed as 1:1 fumarate): presence of β-GPA peaks along with Pattern 7A
Solid form after the DVS experiment (XRPD) ([2]; XRPD of post DVS sample, listed as 1:1 fumarate salt): no form change
Moisture uptake during DVS ([2]; scaled-up sample 2162-64-1, DVS in triplicate): less than 0.1%
Solid form after the DVS experiment (XRPD) ([2]; scaled-up sample 2162-64-1, three DVS experiments): identical to β-GPA fumarate (Pattern 7A); also recorded: did not exhibit any dissociation of the salt
Solid form stability (XRPD) after slurry in acetone:water (9:1) [3]: retain their XRPD pattern
Solid form stability (XRPD) after slurry in acetonitrile [3]: retain their XRPD pattern
Solid form stability (XRPD) after slurry in methanol [3]: retain their XRPD pattern
Solid form stability (XRPD) after slurry in water (disproportionation test) [3]: retained their XRPD patterns
Solid form stability (XRPD) after slurry in water (disproportionation test) ([3]; listed as 1:1 β-GPA fumarate): retained their XRPD pattern
Bulk density (ρB) [4]: 0.576 g/cc
Tapped density (ρT) [4]: 0.613 g/cc
Flow character (summary from the experimental data) [5]: excellent
XRPD after stability study ([6]; 20 ° C., 43% relative humidity): Pattern 7A
XRPD after stability study ([6]; 20 ° C., 59% relative humidity): Pattern 7A
XRPD after stability study ([6]; 20 ° C., 73% relative humidity): Pattern 7A
XRPD after stability study ([6]; 20 ° C., >95% relative humidity): Pattern 7A
XRPD after stability study ([6]; 40 ° C., 82% relative humidity): Pattern 7A
XRPD after stability study ([6]; 60 ° C., 80% relative humidity): Pattern 7A
XRPD after stability study (summary) ([6]; various temperature/RH conditions of Table 22, a week): retained the original XRPD pattern (Pattern 7A)
Solid form of precipitates after 48 hours slurries (XRPD) [7]: no form transformations
Result (XRPD) after temperature cycling ([8]; 50° C. 2 hours, RT, 50° C. 48 hours): Pattern 7A
Result (XRPD) after temperature cycling ([8]; dry ice-acetone 30 minutes, RT): Pattern 7A
Result (XRPD) after temperature cycling ([8]; heated to 150° C. and brought to room temperature, three cycles): Pattern 7A
Result (XRPD) after temperature cycling ([8]; heated to 165° C., immediately dry ice/acetone cooling bath 15 min): Pattern 7D
Appearance after heating ([8]; heating at 160-165° C. (2162-84-7)): yellow to brownish solid
Result (XRPD) after temperature cycling ([8]; vacuum oven 130° C. 2 hours, RT, 130° C. 48 hours): Pattern 7A
XRPD after stability study ([9]; 60 ° C., 50% relative humidity, a week): Pattern 7A
Solid form stability at high humidity (XRPD) ([9]; sample 2162-64-1, RH>95% at room temperature (20° C.), 48 hours): retain its original XRPD pattern (Pattern 7A); also recorded: stable

Structure (SMILES): N=C(N)NCCC(=O)O.O=C(O)/C=C\C(=O)O [β-GPA maleate (1:1) Form II]
Solid form after the DVS experiment (XRPD) ([2]; XRPD of post DVS sample): no form change
Solid form stability (XRPD) after slurry in acetone:water (9:1) [3]: matched with the original pattern of the salt (Pattern 6D) along with some additional peaks
Solid form stability (XRPD) after slurry in acetonitrile [3]: retain its XRPD pattern
Solid form stability (XRPD) after slurry in methanol [3]: retain its XRPD pattern
Solid form stability (XRPD) after slurry in water (disproportionation test) [3]: retained their XRPD patterns

Structure (SMILES): N=C(N)NCCC(=O)O.O=C(O)C(=O)O [β-GPA oxalate (1:1)]
Solid form after the DVS experiment (XRPD) ([2]; XRPD of post DVS sample): retained their XRPD
Solid form after the DVS experiment (XRPD) ([2]; XRPD of post DVS sample, listed as 1:1 oxalate salt): no form change
Solid form after the DVS experiment (XRPD) ([2]; XRPD of post DVS sample, listed as 1:1 β-GPA oxalate): no form change
Solid form stability (XRPD) after slurry in acetone:water (9:1) [3]: retain their XRPD pattern
Solid form stability (XRPD) after slurry in acetonitrile [3]: retain their XRPD pattern
Solid form stability (XRPD) after slurry in methanol [3]: retain their XRPD pattern
Solid form stability (XRPD) after slurry in water (disproportionation test) [3]: retained their XRPD patterns
Solid form stability (XRPD) after slurry in water (disproportionation test) ([3]; listed as 1:1 β-GPA oxalate): retained their XRPD pattern
Bulk density (ρB) [4]: 0.505 g/cc
Tapped density (ρT) [4]: 0.623 g/cc
Flow character (summary from the experimental data) [5]: fair

The next lines start with results.

Solid form after the DVS experiment (XRPD) ([2]; XRPD of post DVS sample): retained their XRPD
Solid form after the DVS experiment (XRPD) ([2]; XRPD of post DVS sample, listed as 2:1 succinate salt): no form change
Solid form after the DVS experiment (XRPD) ([2]; XRPD of post DVS sample, listed as 2:1 β-GPA succinate): no form change
Solid form stability (XRPD) after slurry in acetone:water (9:1) [3]: presence of β-GPA
Solid form stability (XRPD) after slurry in acetonitrile [3]: retain its original form
Solid form stability (XRPD) after slurry in acetonitrile ([3]; listed as 2:1 β-GPA succinate): retain its XRPD pattern
Solid form stability (XRPD) after slurry in methanol [3]: retain its original form
Solid form stability (XRPD) after slurry in methanol ([3]; listed as 2:1 β-GPA succinate): retain its XRPD pattern
Bulk density (ρB) [4]: 0.405 g/cc
Tapped density (ρT) [4]: 0.472 g/cc
Flow character (summary from the experimental data) [5]: good
Structure (SMILES): N=C(N)NCCC(=O)O.N=C(N)NCCC(=O)O.O=C(O)CCC(=O)O [β-GPA succinate (2:1)]
Solid form stability (XRPD) after slurry in water (disproportionation test) [3]: showed two peaks from β-GPA after 6 hours
Solid form stability (XRPD) after slurry in water (disproportionation test) ([3]; listed as 2:1 β-GPA succinate): started showing up peaks from β-GPA after 6 hours

solubility [10]: > 50 mg/mL
Moisture uptake during the DVS experiment ([2]; DVS, relative humidity cycled up to 95%): around 0.1%
Solid form after the DVS experiment (XRPD) ([2]; XRPD of post DVS sample): No change in the solid form
Bulk density (ρB) [4]: 0.389 g/cc
Tapped density (ρT) [4]: 0.627 g/cc
Flow character by Carr's index [11]: Very poor (32-37)
Flow character (summary from the experimental data) [5]: poor
Degradation [12]: No degradation
Structure (SMILES): N=C(N)NCCC(=O)O [β-GPA, β-Guanidinopropionic acid, reference compound]
